The results in this text go back to PMC3914206.

Test [1] deals with T1, ERK5 (Homo sapiens, UniProt Q13164). Nature of the test: ERK5 kinase activity in vitro assay (32P-ATP, PIMtide substrate). The format is biochemical. More on the design: hexahistidine (His6) (N); made in house; host or cells: Spodoptera frugiperda 21 cells (baculovirus, Bac-to-Bac). To be noted: for IC50: in vitro assay, recombinant active ERK5, read-out: Enzymatic IC50 (ERK5). The method, then:
pFastBAC vector encoding N-terminal hexahistidine-tagged human ERK5 and HA-tagged human MEK5-DD (constitutively active) were used to generate recombinant baculovirus using the Bac-to-Bac system (Invitrogen). […] His-tagged ERK5 was purified as described for His-tagged BRSK1[33], using 5 mL Ni-NTA-agarose resin (Qiagen) followed by gel filtration chromatography on Superdex 200HR column on an AKTA system (GE Healthcare).
Assays were carried out for 20 min at 30 °C, terminated by applying the reaction mixture onto p81 paper and the incorporated radioactivity measured as described previously.

Test [2] addresses T1, ERK5. Nature of the test: ERK5 autophosphorylation assay (EGF-stimulated, mobility shift immunoblot). The format is cell-based. More on the design: endogenous in cells; host or cells: HeLa. To be noted: inhibition of EGF-stimulated autophosphorylation of ERK5 in HeLa cells; read-out: Cellular EC50 (ERK5). From the text:
Proteins from total cell lysates were resolved by 6% sodium dodecyl sulfate (SDS)-poly-acrylamide gel electrophoresis (PAGE), transferred to nitrocellulose membrane, blocked in 5% nonfat milk, and blotted with anti-ERK5 antibody.

T1 sequence (Q13164 whole entry): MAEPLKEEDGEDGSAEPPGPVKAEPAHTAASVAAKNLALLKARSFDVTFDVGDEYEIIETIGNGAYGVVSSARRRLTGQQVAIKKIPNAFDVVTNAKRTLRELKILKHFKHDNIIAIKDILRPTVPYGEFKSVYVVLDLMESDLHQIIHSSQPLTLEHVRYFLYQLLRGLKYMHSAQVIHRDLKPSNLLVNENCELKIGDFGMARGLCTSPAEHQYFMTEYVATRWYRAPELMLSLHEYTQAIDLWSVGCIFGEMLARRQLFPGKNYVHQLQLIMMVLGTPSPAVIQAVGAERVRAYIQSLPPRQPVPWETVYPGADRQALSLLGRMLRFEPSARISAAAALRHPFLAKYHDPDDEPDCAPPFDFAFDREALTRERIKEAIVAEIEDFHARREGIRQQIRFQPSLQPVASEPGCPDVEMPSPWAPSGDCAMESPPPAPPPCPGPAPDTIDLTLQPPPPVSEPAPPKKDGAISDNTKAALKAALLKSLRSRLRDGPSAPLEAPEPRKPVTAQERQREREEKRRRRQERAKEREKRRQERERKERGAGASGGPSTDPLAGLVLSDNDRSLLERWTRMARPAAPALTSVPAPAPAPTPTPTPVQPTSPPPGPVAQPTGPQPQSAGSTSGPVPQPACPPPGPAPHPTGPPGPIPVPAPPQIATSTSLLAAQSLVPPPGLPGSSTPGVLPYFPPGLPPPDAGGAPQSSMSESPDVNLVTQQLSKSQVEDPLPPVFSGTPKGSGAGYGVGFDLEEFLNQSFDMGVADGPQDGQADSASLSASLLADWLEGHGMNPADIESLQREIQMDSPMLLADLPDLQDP

Regarding `COc1cc(N2CCN(C)CC2)ccc1Nc1ncc2c(n1)N(C)c1cc(C)ccc1C(=O)N2C` [Compound 23], the IC50 – broadly, the concentration that gives 50% inhibition – on ERK5 [1] amounted to 2460 ± 260 nM. In addition, the EC50 (as a rule, the midpoint of the concentration-response curve) at ERK5 [2] worked out at 3100 ± 620 nM.
The like results for `CN1C(=O)c2ccccc2N(C)c2nc(NCCc3cnc[nH]3)ncc21` [Compound 9] were, in that order, 1720 ± 221 nM and 4680 ± 520 nM.
Turning to `COc1cc(N2CCN(C)CC2)ccc1Nc1ncc2c(n1)N(C)c1ccc(F)cc1C(=O)N2C` [Compound 20], the IC50 on ERK5 [1] worked out at 873 ± 60 nM. The EC50 at ERK5 [2] came out at 1320 ± 220 nM.
For `COc1cc(NCCN(C)C)ccc1Nc1ncc2c(n1)N(C)c1ccccc1C(=O)N2C` [Compound 13], in that order: 140 ± 9 nM and 240 ± 30 nM.
Consider `COc1cc(N2CCN(C)CC2)ccc1Nc1ncc2c(n1)N(C)c1ccccc1C(=O)N2` [Compound 16], for which the IC50 at ERK5 [1] is 1450 ± 210 nM. Further, at ERK5 [1] (relative to compound 5), the “fold decrease in activity for ERK5” value is reported as 4 fold. Moreover, the half-maximal effective concentration (EC50) at ERK5 [2] was above 1000 nM.
`COc1cc(N2CCN(C)CC2)ccc1Nc1ncc2c(n1)N(C)c1ccc(Cl)cc1C(=O)N2C` [Compound 22]: the IC50 at ERK5 [1] turned out to be 5090 ± 52 nM. Besides, the EC50 at ERK5 [2] stood at 11400 ± 2040 nM.
For `CN1C(=O)c2ccccc2N(C)c2nc(Nc3ccc(S(N)(=O)=O)cc3)ncc21` [Compound 8], the IC50 at ERK5 [1] worked out at 171 ± 16 nM. Further, the EC50 on ERK5 [2] amounted to 310 ± 60 nM.
For `COc1cc(N2CCN(C)CC2)ccc1Nc1ncc2c(n1)N(C1CCCC1)c1ccccc1C(=O)N2C` [Compound 19], the 50% inhibitory concentration (IC50) on ERK5 [1] was determined as 146 ± 18 nM. At ERK5 [2], the EC50 was 200 ± 40 nM.
The like results for `CN1CCC(Nc2ncc3c(n2)N(C)c2ccccc2C(=O)N3C)CC1` [Compound 10] were, in that order, 1250 ± 151 nM and 4110 ± 590 nM.
The like results for `COc1cc(N2CCC(O)CC2)ccc1Nc1ncc2c(n1)N(C)c1ccccc1C(=O)N2C` [Compound 6] were, in that order, 297 ± 14 nM and 240 ± 40 nM.
Turning to `COc1cc(N2CCOCC2)ccc1Nc1ncc2c(n1)N(C)c1ccccc1C(=O)N2C` [Compound 7], at ERK5 [1], the IC50 is 233 ± 19 nM. Besides, the EC50 at ERK5 [2] came to 260 ± 30 nM.
The like results for `CC(C)Oc1cc(N2CCC(O)CC2)ccc1Nc1ncc2c(n1)N(C)c1ccccc1C(=O)N2C` [Compound 12] were, in that order, 1530 ± 172 nM and above 500 nM.
For `COc1cc(N2CCN(C)CC2)ccc1Nc1ncc2c(n1)N(C(C)C)c1ccccc1C(=O)N2C` [Compound 18], in that order: 98 ± 12 nM and 230 ± 30 nM.
For `COc1cc(N2CCN(C)CC2)ccc1Nc1ncc2c(n1)N(C)c1cc(Cl)ccc1C(=O)N2C` [Compound 21], in that order: 1130 ± 160 nM and 1240 ± 240 nM.
As to `CCN1c2ccccc2C(=O)N(C)c2cnc(Nc3ccc(N4CCN(C)CC4)cc3OC)nc21` [Compound 17], at ERK5 [1], the IC50 is 66 ± 7 nM. Besides, on ERK5 [2], the EC50 worked out at 200 ± 40 nM.
The like results for `COc1cc(C(=O)NC2CCN(C)CC2)ccc1Nc1ncc2c(n1)N(C)c1ccccc1C(=O)N2C` [Compound 14] were, in that order, 338 ± 18 nM and 320 ± 50 nM.
